Source: PMC11876601 (Molecular Systems Biology, 2025)
Values joined by “and” are separate entries in the source; they are usually repeats but may differ in a detail not shown here. Equal values may be shown once. Read-outs that look alike come from different tables or passages of the source.

System: AsPC-1 cells
Assay: Cell proliferation assay, chemodrug + ATR inhibitor (Incucyte confluence, 72 h);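 also: underlying read-out for every value is AsPC-1 confluence after 72 h incubation at 37 °C and 5% CO2, divided by that well's starting confluence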
Settings: for Curve bottom / Curve slope / Curve top / EC50 / pEC50: AsPC-1; for Ratio: Response / Response vehicle (mean)
[1] = Experiment GEM (no ATRi), single replicates R1-R3
[2] = Experiment GEM+ATRi_dose1, single replicates R1-R3
[3] = Experiment GEM+ATRi_dose2, single replicates R1-R3
[4] = Experiment GEM+ATRi_dose3, single replicates R1-R3
[5] = Drug 0 nM + ATRi 3 nM (ATRi alone, GEM+ATRi_dose1 series), replicates R1-R3
[6] = Drug 0 nM + ATRi 10 nM (ATRi alone, GEM+ATRi_dose2 series), replicates R1-R3
[7] = Drug 0 nM + ATRi 30 nM (ATRi alone, GEM+ATRi_dose3 series), replicates R1-R3
[8] = Drug 1 nM + ATRi 3 nM (GEM+ATRi_dose1), replicates R1-R3
[9] = Drug 1 nM + ATRi 10 nM (GEM+ATRi_dose2), replicates R1-R3
[10] = Drug 1 nM + ATRi 30 nM (GEM+ATRi_dose3), replicates R1-R3
[11] = Drug 1 nM alone, ATRi 0 nM (experiment 'GEM'), replicates R1-R3
[12] = Drug 3 nM + ATRi 3 nM (GEM+ATRi_dose1), replicates R1-R3
[13] = Drug 3 nM + ATRi 10 nM (GEM+ATRi_dose2), replicates R1-R3
[14] = Drug 3 nM + ATRi 30 nM (GEM+ATRi_dose3), replicates R1-R3
[15] = Drug 3 nM alone, ATRi 0 nM (experiment 'GEM'), replicates R1-R3
[16] = Drug 10 nM + ATRi 3 nM (GEM+ATRi_dose1), replicates R1-R3
[17] = Drug 10 nM + ATRi 10 nM (GEM+ATRi_dose2), replicates R1-R3
[18] = Drug 10 nM + ATRi 30 nM (GEM+ATRi_dose3), replicates R1-R3
[19] = Drug 10 nM alone, ATRi 0 nM (experiment 'GEM'), replicates R1-R3
[20] = Drug 30 nM + ATRi 3 nM (GEM+ATRi_dose1), replicates R1-R3
[21] = Drug 30 nM + ATRi 10 nM (GEM+ATRi_dose2), replicates R1-R3
[22] = Drug 30 nM + ATRi 30 nM (GEM+ATRi_dose3), replicates R1-R3
[23] = Drug 30 nM alone, ATRi 0 nM (experiment 'GEM'), replicates R1-R3
[24] = Drug 100 nM + ATRi 3 nM (GEM+ATRi_dose1), replicates R1-R3
[25] = Drug 100 nM + ATRi 10 nM (GEM+ATRi_dose2), replicates R1-R3
[26] = Drug 100 nM + ATRi 30 nM (GEM+ATRi_dose3), replicates R1-R3
[27] = Drug 100 nM alone, ATRi 0 nM (experiment 'GEM'), replicates R1-R3
[28] = Drug 300 nM + ATRi 3 nM (GEM+ATRi_dose1), replicates R1-R3
[29] = Drug 300 nM + ATRi 10 nM (GEM+ATRi_dose2), replicates R1-R3
[30] = Drug 300 nM + ATRi 30 nM (GEM+ATRi_dose3), replicates R1-R3
[31] = Drug 300 nM alone, ATRi 0 nM (experiment 'GEM'), replicates R1-R3
[32] = Drug 1000 nM + ATRi 3 nM (GEM+ATRi_dose1), replicates R1-R3
[33] = Drug 1000 nM + ATRi 10 nM (GEM+ATRi_dose2), replicates R1-R3
[34] = Drug 1000 nM + ATRi 30 nM (GEM+ATRi_dose3), replicates R1-R3
[35] = Drug 1000 nM alone, ATRi 0 nM (experiment 'GEM'), replicates R1-R3
[36] = Drug 3000 nM + ATRi 3 nM (GEM+ATRi_dose1), replicates R1-R3
[37] = Drug 3000 nM + ATRi 10 nM (GEM+ATRi_dose2), replicates R1-R3
[38] = Drug 3000 nM + ATRi 30 nM (GEM+ATRi_dose3), replicates R1-R3
[39] = Drug 3000 nM alone, ATRi 0 nM (experiment 'GEM'), replicates R1-R3
[40] = chemodrug 30 nM alone (ATRi 0 nM)
[41] = chemodrug 100 nM alone (ATRi 0 nM)
[42] = chemodrug 300 nM alone (ATRi 0 nM)
[43] = chemodrug 1000 nM alone (ATRi 0 nM)
[44] = chemodrug 3000 nM alone (ATRi 0 nM)

Description: Cells were seeded at 5000 cells/well into 96-well flat bottom plates (Eppendorf) and allowed to attach overnight. […] Cells were incubated for 72 h at 37 °C and 5% CO2. Cell confluence readouts at 72 h were either normalized to their initial confluence using the Incucyte software (AsPC-1) or used without prior normalization (all others). […] Each experiment was performed in triplicates, the data was plotted as mean ± standard deviation (s.d.).

## N.N.[Cl][Pt][Cl] [Cisplatin]
[1]
  Curve bottom: 1.04 and 1.01 and 1.00
  Curve slope: 1.30 and 2.18 and 1.82
  Curve top: 0.20 and 0.35 and 0.27
  EC50: 513 nM and 218 nM and 302 nM
  pEC50: 6.29 and 6.66 and 6.52
[2]
  Curve bottom: 1.05 and 1.02 and 1.03
  Curve slope: 1.41 and 1.64 and 1.76
  Curve top: 0.25 and 0.33 and 0.27
  EC50: 172 nM and 118 nM and 151 nM
  pEC50: 6.76 and 6.93 and 6.82
[3]
  Curve bottom: 1.03 and 1.00 and 1.02
  Curve slope: 1.60 and 1.79 and 1.21
  Curve top: 0.28 and 0.31 and 0.26
  EC50: 36.4 nM and 34.9 nM and 37.1 nM
  pEC50: 7.44 and 7.46 and 7.43
[4]
  Curve bottom: 0.90 and 0.95 and 0.88
  Curve slope: 0.65 and 0.81 and 0.69
  Curve top: 0.22 and 0.29 and 0.23
  EC50: 6.62 nM and 4.98 nM and 7.67 nM
  pEC50: 8.18 and 8.30 and 8.12
[5]
  Response: 86.95 and 90.22 and 92.73
  Ratio: 1.02 and 1.00 and 1.03
[6]
  Response: 86.95 and 90.22
  Ratio: 1.02 and 1.00
[7]
  Response: 75.87 and 84.36
  Ratio: 0.89 and 0.93
[8]
  Response: 87.64 and 91.58 and 92.37
  Ratio: 1.03 and 1.01 and 1.02
[9]
  Response: 86.97 and 90.31
  Ratio: 1.02 and 1.00
[10]
  Response: 68.28 and 77.94
  Ratio: 0.80 and 0.86
[11]
  Response: 87.69 and 92.23
  Ratio: 1.03 and 1.02
[12]
  Response: 91.78 and 94.40 and 93.95
  Ratio: 1.08 and 1.04
[13]
  Response: 85.95 and 90.04
  Ratio: 1.01 and 1.00
[14]
  Response: 52.30 and 58.04
  Ratio: 0.61 and 0.64
[15]
  Response: 89.38 and 90.87
  Ratio: 1.05 and 1.00
[16]
  Response: 89.09 and 93.32 and 91.50
  Ratio: 1.05 and 1.03 and 1.01
[17]
  Response: 81.41 and 84.65
  Ratio: 0.96 and 0.94
[18]
  Response: 41.30 and 46.95
  Ratio: 0.49 and 0.52
[19]
  Response: 87.15 and 91.05
  Ratio: 1.02 and 1.01
[20]
  Response: 84.14 and 83.47 and 86.69
  Ratio: 0.99 and 0.92 and 0.96
[21]
  Response: 60.15 and 63.62
  Ratio: 0.71 and 0.70
[22]
  Response: 36.88 and 38.31
  Ratio: 0.43 and 0.42
[23]
  Response: 87.92 and 89.82
  Ratio: 1.03 and 0.99
[24]
  Response: 67.31 and 66.59 and 71.27
  Ratio: 0.79 and 0.74
[25]
  Response: 33.79 and 36.06
  Ratio: 0.40
[26]
  Response: 30.17 and 37.05
  Ratio: 0.35 and 0.41
[27]
  Response: 79.92 and 81.64
  Ratio: 0.94 and 0.90
[28]
  Response: 43.01 and 39.79 and 38.91
  Ratio: 0.51 and 0.44 and 0.43
[29]
  Response: 30.09 and 31.69
  Ratio: 0.35
[30]
  Response: 22.83 and 27.53
  Ratio: 0.27 and 0.30
[31]
  Response: 65.38 and 51.74
  Ratio: 0.77 and 0.57
[32]
  Response: 27.32 and 30.30 and 27.51
  Ratio: 0.32 and 0.34 and 0.31
[33]
  Response: 23.88 and 28.00
  Ratio: 0.28 and 0.31
[34]
  Response: 20.74 and 24.11
  Ratio: 0.24 and 0.27
[35]
  Response: 37.94 and 32.34
  Ratio: 0.45 and 0.36
[36]
  Response: 22.35 and 31.11 and 24.18
  Ratio: 0.26 and 0.34 and 0.27
[37]
  Response: 21.92 and 27.23 and 22.65
  Ratio: 0.26 and 0.30 and 0.25
[38]
  Response: 19.23 and 26.92
  Ratio: 0.23 and 0.30
[39]
  Response: 23.81 and 32.93
  Ratio: 0.28 and 0.36
Chemodrug 1 nM + ATRi 10 nM
  Ratio (Response / Response vehicle (mean)): 1.00
  Response: 89.91
Chemodrug 1 nM + ATRi 30 nM
  Ratio (Response / Response vehicle (mean)): 0.80
  Response: 71.79
Chemodrug 1 nM alone (ATRi 0 nM)
  Ratio (Response / Response vehicle (mean)): 1.02
Chemodrug 3 nM + ATRi 10 nM
  Ratio (Response / Response vehicle (mean)): 0.99
  Response: 89.48
Chemodrug 3 nM + ATRi 30 nM
  Ratio (Response / Response vehicle (mean)): 0.63
  Response: 57.06
Chemodrug 3 nM alone (ATRi 0 nM)
  Ratio (Response / Response vehicle (mean)): 1.00
Chemodrug 10 nM + ATRi 10 nM
  Ratio (Response / Response vehicle (mean)): 0.89
  Response: 80.53
Chemodrug 10 nM + ATRi 30 nM
  Ratio (Response / Response vehicle (mean)): 0.51
  Response: 45.87
Chemodrug 10 nM alone (ATRi 0 nM)
  Ratio (Response / Response vehicle (mean)): 0.99
Chemodrug 30 nM + ATRi 10 nM
  Ratio (Response / Response vehicle (mean)): 0.69
  Response: 62.02
Chemodrug 30 nM + ATRi 30 nM
  Ratio (Response / Response vehicle (mean)): 0.43
  Response: 38.92
[40]
  Ratio (Response / Response vehicle (mean)): 1.03
  Response: 92.93
Chemodrug 100 nM + ATRi 10 nM
  Ratio (Response / Response vehicle (mean)): 0.43
  Response: 39.16
Chemodrug 100 nM + ATRi 30 nM
  Ratio (Response / Response vehicle (mean)): 0.35
  Response: 31.50
[41]
  Ratio (Response / Response vehicle (mean)): 0.90
  Response: 81.28
Chemodrug 300 nM + ATRi 10 nM
  Ratio (Response / Response vehicle (mean)): 0.31
  Response: 28.30
Chemodrug 300 nM + ATRi 30 nM
  Ratio (Response / Response vehicle (mean)): 0.27
  Response: 23.96
[42]
  Ratio (Response / Response vehicle (mean)): 0.65
  Response: 58.52
Chemodrug 1000 nM + ATRi 10 nM
  Ratio (Response / Response vehicle (mean)): 0.29
  Response: 25.88
Chemodrug 1000 nM + ATRi 30 nM
  Ratio (Response / Response vehicle (mean)): 0.26
  Response: 23.54
[43]
  Ratio (Response / Response vehicle (mean)): 0.34
  Response: 30.70
Chemodrug 3000 nM + ATRi 30 nM
  Ratio (Response / Response vehicle (mean)): 0.23
  Response: 20.88
[44]
  Ratio (Response / Response vehicle (mean)): 0.29
  Response: 26.17
Chemodrug + three sub-EC50 doses of Elimusertib
  sensitization of AsPC-1 cells to the chemodrug by Elimusertib: sensitized
read-out: EC50 mean, Experiment GEM (no ATRi), mean of R1-R3, repeated in each replicate line
  EC50: 344 nM
read-out: EC50 mean, Experiment GEM+ATRi_dose1, mean of R1-R3, repeated in each replicate line
  EC50: 147 nM
read-out: EC50 mean, Experiment GEM+ATRi_dose2, mean of R1-R3, repeated in each replicate line
  EC50: 36.1 nM
read-out: EC50 mean, Experiment GEM+ATRi_dose3, mean of R1-R3, repeated in each replicate line
  EC50: 6.42 nM
